Melting point data for 33 compounds are collected here from a melting point compilation (Tetko et al.; mined from patent text by program, amines drawn as free bases though some values may be those of a salt).

The structures appear in SMILES notation.

`CN(C)C(=O)C(c1ccccc1)(c1ccccc1)C1CCNC1` (stereo not drawn): the melting point (usually the temperature, or range, at which the solid turns liquid) was 159 to 160 °C.

The compound `Cc1c2c(c(Oc3ccc(C(C)C)cc3)c(C)c1NC(=O)CC(C)(C)C)OC(C)(C)C2` displayed a melting point of 148 to 149 °C.

`O=C(O)C1=Cc2cc(Cl)c(Oc3ccccc3Cl)cc2OC1C(F)(F)F` (stereo not drawn) showed a melting point of 199 °C.

Consider `COc1ccc(CBr)c(CBr)c1`, for which the melting point is 48 to 50 °C.

Compound `O=C(Cc1ccccc1)c1ccc(OCC2CO2)cc1` (stereo not drawn) showed a melting point of 81 to 82.4 °C.

Take `CCN(CC)c1ccc(/C=C/c2cc(/C=C/c3ccc4cc[nH]c4c3)[nH]n2)c(OCCN2CCCCC2)c1`: the melting point is 102 to 104 °C.

As for `c1ccc(-c2nnc(-c3ccccc3)c3c2CCCCCC3)cc1`, the melting point was 163 to 165 °C.

In turn, `COC(=O)c1c(C(=O)OC)c(-c2ccc(OC)c(OC)c2)c2sccc2c1OC` gave a melting point of 118 °C.

`CC(C)OC(=O)C(=C1SC=CS1)c1ccc(F)cc1` returned a melting point of 86 °C.

For `CCOC(=O)C[C@H](O)COC(c1ccccc1)(c1ccccc1)c1ccccc1`, the melting point is 98.8 to 101 °C.

Consider `COC(=O)Cc1sc(F)c(N=c2sc(=O)n3n2CCCC3)c1Cl`, for which the melting point fell in the range of 99 to 101 °C.

Turning to `COC(=O)c1cccc(-c2nnn(Cc3ccc(OC)cc3)n2)c1`, the melting point is 105 to 106 °C.

Take `CCOC(=O)C1=C(C)Nc2ccnc(OC(C)C)c2C1c1cccc(C(F)(F)F)c1` (stereo not drawn): the melting point fell in the range of 130 to 131 °C.

Regarding `Cn1cc(C2=C(c3c4n(c5ccccc35)CCC(CNC(=O)c3ccccc3)C4)C(=O)NC2=O)c2ccccc21` (stereo not drawn), the melting point lay in the range of 297 to 303 °C.

`N#CCCNC(=O)c1cccc(-c2ccc3c(n2)N(Cc2ccc(Cl)cc2Cl)CC3)c1` came in with a melting point of 156 to 157 °C.

`COCO[C@@H](C(=O)OC)[C@@H](Sc1ccccc1[N+](=O)[O-])c1ccc(OC)cc1`: the melting point lay within 155 to 158 °C.

The compound `CCNC(=O)c1c(Cl)cc(Cl)cc1[Si](C)(C)C` displayed a melting point of 101 to 103 °C.

Compound `COCC(F)(F)c1nc2nc(C)c(F)cc2cc1C(=O)C1C(=O)C2CCC(C2)C1=O` (stereo not drawn) came in with a melting point of 177 to 180 °C.

The compound `CCOC1C(NC(=O)C(F)(F)F)CC(OC(=O)c2ccc([N+](=O)[O-])cc2)OC1C` (stereo not drawn) gave a melting point of 148 to 150 °C.

Take `N#Cc1n[nH]cc1-c1ccc(Cl)cc1C(=O)c1ccccc1Cl`: the melting point fell in the range of 183 to 184 °C.

Regarding `CCCCc1nn2ccccc2c1Cc1ccc(Br)cc1`, the melting point is less than 50 °C.

`COCCNc1ccc2ncnc(Nc3cccc(C)c3)c2c1` registered a melting point of 163 to 167 °C.

As to `COc1ccc(-c2c(N)cnc3ccc(Cl)cc23)cc1OC`, the melting point fell in the range of 187 to 190 °C.

Regarding `Cc1ccc(OC2CCN(C(=O)C(=O)Nc3ccc4[nH]c(=O)sc4c3)CC2)cc1`, the melting point lay in the range of 215 to 217 °C.

In turn, `CCc1nc2c(N)nc3c(c2n1CCCCS(=O)(=O)NC)CCCC3` returned a melting point of 166 to 170 °C.

In the case of `CCOC(=O)CCCCC1CC(n2c3ccccc3c3ccccc32)c2ccccc2N1C(=O)c1ccc(OC)c(OC)c1` (stereo not drawn), the melting point lay within 195 to 196 °C.

Compound `COC(C)=C(C(=O)OC(c1ccccc1)c1ccccc1)N1C(=O)C(NC(=O)C(NC(=O)OC(C)(C)C)c2ccccc2)C1SS(=O)(=O)c1ccc(C)cc1` (stereo not drawn) came in with a melting point of 204 to 206 °C.

`CCCCN1C(=O)NC(Cc2ccc(C)s2)C1=O` (stereo not drawn) yielded a melting point of 107 °C.

`O=C(c1ccccn1)c1cc(Br)ccc1-n1cnnc1CCl` came in with a melting point of 147 to 149 °C.

As to `O=C(O)CC1(c2ccc(Cl)c(Cl)c2)CCC(=O)NC1=O` (stereo not drawn), the melting point worked out at 203 °C.

The compound `CC(C)c1nc(CCOCc2ccccc2)n(C)c1Sc1cc(Cl)cc(Cl)c1` had a melting point of 101 to 103 °C.

Regarding `Cc1ccc(-c2nc(C(=O)O)c(C)s2)s1`, the melting point lay in the range of 160 to 161 °C.

Take `COc1cc(C2C(=O)N(C)Cc3c2ccc(OC)c3OC(C)C)cc(OC)c1OC` (stereo not drawn): the melting point fell in the range of 128 to 129 °C.
